Measured values: ChEMBL document CHEMBL4020778, “Recent progress towards clinically relevant ATP-competitive Akt inhibitors” (Bioorg Med Chem Lett, 2017)

Experiments:
[1] = target: Ribosomal protein S6 kinase alpha-1/alpha-3 (Homo sapiens) (UniProt P51812+Q15418); assay: Inhibition of RSK1/2 (unknown origin) at 10 uM relative to control; type: protein assay
[2] = tested on: Ribosomal protein S6 kinase beta-1 (Homo sapiens), P23443 [T412E]; assay: Inhibition of human p70S6K T412E mutant (1 to 421 residues) at 10 uM using substrate after 5 mins in presence of [33P]ATP by scintillation counting method relative to control
[3] = target: Rho-associated protein kinase 2 (Rattus norvegicus) (UniProt Q62868); assay: Inhibition of rat ROCK2 (2 to 543 residues) at 10 uM using substrate after 5 mins in presence of [33P]ATP by scintillation counting method relative to control
[4] = tested on: T1, Serine/threonine-protein kinase Sgk1 (Homo sapiens), O00141 [S422D]; assay: Inhibition of human SGK1 S422D mutant (60 to 431 residues) at 10 uM using substrate after 5 mins in presence of [33P]ATP by scintillation counting method relative to control
T1 sequence (whole entry): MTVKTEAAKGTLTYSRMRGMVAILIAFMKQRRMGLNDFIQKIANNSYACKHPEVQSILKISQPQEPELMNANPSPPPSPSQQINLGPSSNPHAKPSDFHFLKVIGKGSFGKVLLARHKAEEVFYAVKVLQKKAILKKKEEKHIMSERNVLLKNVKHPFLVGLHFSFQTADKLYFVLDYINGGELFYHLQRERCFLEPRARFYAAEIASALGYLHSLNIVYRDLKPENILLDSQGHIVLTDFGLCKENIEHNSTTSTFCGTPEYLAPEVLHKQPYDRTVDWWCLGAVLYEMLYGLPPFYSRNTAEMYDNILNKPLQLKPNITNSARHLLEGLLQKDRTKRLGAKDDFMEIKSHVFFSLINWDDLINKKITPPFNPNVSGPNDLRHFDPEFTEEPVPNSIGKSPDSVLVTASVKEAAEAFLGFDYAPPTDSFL

[5] = target: Rho-associated protein kinase 1 (Homo sapiens) (UniProt Q13464); assay: Inhibition of ROCK1 (unknown origin) at 10 uM relative to control
[6] = organism: Homo sapiens; assay: Inhibition of PKA (unknown origin) at 10 uM relative to control
[7] = Ratio of drug level in tumor to plasma in CrTac:Ncr-Fox1nu mouse at 40 mg/kg, po administered once daily for 2 days measured after 24 hrs post last dose; type: ADME, organism-based
[8] = organism: Homo sapiens; assay: Inhibition of MSK (unknown origin) at 10 uM relative to control
[9] = Half life in Balb/c mouse at 5 mg/kg, iv by LC-MS/MS analysis; type: ADME, organism-based; details: in vivo
[10] = target: cAMP-dependent protein kinase catalytic subunit alpha (Homo sapiens, UniProt P17612); assay: Inhibition of recombinant human His-tagged PKA catalytic domain (1 to 351 residues) expressed in Escherichia coli using Ser/Thr 7 as substrate after 1 hr by FRET-based Z'-Lyte assay
[11] = tested on: BT-474; assay: Anti-tumor activity against human BT474 cells xenografted in CrTac:Ncr-Fox1nu mouse assessed as reduction in tumor weight at 40 mg/kg, po administered once daily for 2 days measured after 26 days relative to control; type: functional
[12] = target: Glycogen synthase kinase-3 beta (Homo sapiens) (UniProt P49841); assay: Inhibition of GSK3beta phosphorylation at ser9 in human U87MG cells at >1 uM by Western blot analysis relative to control; type: cell-based

Rho-associated protein kinase 2 (Rattus norvegicus), sequence (Q62868 whole entry, looked up, the tested form may be a part): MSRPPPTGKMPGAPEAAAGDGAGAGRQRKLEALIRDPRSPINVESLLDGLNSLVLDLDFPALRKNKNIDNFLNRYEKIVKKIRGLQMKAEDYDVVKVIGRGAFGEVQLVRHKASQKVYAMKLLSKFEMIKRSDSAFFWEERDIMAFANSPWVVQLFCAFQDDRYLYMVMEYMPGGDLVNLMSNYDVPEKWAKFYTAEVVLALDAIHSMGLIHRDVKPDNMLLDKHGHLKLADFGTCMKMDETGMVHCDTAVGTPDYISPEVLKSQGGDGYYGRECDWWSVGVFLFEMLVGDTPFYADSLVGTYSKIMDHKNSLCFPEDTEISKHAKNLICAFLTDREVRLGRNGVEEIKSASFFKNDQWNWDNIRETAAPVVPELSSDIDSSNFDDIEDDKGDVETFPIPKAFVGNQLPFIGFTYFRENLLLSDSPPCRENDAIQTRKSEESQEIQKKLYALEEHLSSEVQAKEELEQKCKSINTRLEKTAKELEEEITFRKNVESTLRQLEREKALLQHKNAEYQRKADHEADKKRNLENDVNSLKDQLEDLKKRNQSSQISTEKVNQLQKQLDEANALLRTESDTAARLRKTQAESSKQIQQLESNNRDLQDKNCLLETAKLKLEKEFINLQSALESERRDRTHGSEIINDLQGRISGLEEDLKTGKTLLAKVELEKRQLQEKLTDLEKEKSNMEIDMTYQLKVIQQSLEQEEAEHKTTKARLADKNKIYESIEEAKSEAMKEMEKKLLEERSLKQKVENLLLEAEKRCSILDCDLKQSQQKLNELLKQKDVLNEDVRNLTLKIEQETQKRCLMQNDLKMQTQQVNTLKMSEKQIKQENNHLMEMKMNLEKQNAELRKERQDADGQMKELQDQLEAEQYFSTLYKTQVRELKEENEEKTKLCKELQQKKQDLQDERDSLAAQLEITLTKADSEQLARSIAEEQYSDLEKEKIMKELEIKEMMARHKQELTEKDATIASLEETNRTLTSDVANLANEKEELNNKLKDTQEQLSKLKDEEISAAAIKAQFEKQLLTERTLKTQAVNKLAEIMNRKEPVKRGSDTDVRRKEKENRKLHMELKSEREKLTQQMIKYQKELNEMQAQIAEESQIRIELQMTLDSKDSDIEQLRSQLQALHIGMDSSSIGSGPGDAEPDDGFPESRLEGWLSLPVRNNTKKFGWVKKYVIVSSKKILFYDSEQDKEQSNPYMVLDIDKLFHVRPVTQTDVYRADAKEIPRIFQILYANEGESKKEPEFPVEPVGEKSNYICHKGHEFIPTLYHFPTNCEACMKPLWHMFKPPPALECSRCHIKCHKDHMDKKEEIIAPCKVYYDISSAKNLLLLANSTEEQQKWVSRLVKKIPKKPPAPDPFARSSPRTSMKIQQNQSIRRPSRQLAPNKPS
Ribosomal protein S6 kinase beta-1 (Homo sapiens), P23443 [T412E], sequence (P23443 whole entry T412E, looked up, the tested form may be a part): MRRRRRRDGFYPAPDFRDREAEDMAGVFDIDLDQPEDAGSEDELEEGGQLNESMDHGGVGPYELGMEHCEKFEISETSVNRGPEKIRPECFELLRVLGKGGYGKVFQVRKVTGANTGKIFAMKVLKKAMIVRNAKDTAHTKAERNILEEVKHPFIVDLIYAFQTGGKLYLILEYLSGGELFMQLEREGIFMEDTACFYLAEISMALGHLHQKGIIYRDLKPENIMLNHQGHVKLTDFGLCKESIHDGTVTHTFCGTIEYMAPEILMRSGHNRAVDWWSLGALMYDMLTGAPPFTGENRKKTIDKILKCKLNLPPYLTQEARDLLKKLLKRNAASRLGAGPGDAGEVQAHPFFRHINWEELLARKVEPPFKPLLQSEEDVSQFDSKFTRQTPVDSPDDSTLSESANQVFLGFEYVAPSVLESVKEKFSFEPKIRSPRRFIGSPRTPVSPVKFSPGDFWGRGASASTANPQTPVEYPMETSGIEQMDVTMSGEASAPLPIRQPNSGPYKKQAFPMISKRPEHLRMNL
Ribosomal protein S6 kinase alpha-1/alpha-3 (Homo sapiens), sequence (P51812 whole entry, looked up, the tested form may be a part): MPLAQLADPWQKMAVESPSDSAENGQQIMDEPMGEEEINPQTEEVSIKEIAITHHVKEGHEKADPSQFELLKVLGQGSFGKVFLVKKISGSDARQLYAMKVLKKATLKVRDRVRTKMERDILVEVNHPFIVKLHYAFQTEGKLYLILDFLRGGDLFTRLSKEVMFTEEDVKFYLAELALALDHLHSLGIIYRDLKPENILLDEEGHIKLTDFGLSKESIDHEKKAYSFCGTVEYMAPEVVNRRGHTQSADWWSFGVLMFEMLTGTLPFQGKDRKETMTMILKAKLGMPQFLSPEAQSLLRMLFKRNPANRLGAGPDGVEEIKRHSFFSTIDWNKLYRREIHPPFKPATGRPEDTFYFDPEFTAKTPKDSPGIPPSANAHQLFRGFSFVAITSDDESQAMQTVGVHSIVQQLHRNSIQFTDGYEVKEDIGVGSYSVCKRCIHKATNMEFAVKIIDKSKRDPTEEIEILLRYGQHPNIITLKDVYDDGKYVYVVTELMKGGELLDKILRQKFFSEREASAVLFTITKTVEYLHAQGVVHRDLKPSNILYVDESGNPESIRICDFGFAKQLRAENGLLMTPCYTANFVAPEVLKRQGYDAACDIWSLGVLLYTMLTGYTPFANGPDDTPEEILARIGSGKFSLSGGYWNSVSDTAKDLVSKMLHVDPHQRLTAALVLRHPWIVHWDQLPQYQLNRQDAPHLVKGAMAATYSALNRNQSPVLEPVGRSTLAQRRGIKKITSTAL
Ribosomal protein S6 kinase alpha-1/alpha-3 (Homo sapiens), sequence (Q15418 whole entry, looked up, the tested form may be a part): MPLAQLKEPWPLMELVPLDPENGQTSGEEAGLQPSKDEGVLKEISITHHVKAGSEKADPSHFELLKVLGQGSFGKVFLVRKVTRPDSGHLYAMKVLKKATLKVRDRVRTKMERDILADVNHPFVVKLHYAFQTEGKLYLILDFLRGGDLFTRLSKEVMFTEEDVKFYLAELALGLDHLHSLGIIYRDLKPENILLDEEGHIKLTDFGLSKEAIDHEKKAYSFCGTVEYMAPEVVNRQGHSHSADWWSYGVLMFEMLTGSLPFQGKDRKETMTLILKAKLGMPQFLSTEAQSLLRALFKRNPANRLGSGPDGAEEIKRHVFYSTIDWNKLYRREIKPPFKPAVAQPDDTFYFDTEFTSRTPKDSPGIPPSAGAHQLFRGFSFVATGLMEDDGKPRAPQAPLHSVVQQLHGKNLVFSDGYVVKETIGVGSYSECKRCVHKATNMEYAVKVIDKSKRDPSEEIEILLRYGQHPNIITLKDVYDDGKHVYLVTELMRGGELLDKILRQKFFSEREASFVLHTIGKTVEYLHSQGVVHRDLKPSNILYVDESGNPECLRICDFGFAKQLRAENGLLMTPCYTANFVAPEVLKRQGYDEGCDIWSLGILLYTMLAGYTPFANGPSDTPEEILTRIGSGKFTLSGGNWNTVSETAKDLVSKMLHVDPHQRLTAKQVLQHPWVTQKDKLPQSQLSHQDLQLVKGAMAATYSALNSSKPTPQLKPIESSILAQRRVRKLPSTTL
Rho-associated protein kinase 1 (Homo sapiens), sequence (Q13464 2-1354 limits assumed): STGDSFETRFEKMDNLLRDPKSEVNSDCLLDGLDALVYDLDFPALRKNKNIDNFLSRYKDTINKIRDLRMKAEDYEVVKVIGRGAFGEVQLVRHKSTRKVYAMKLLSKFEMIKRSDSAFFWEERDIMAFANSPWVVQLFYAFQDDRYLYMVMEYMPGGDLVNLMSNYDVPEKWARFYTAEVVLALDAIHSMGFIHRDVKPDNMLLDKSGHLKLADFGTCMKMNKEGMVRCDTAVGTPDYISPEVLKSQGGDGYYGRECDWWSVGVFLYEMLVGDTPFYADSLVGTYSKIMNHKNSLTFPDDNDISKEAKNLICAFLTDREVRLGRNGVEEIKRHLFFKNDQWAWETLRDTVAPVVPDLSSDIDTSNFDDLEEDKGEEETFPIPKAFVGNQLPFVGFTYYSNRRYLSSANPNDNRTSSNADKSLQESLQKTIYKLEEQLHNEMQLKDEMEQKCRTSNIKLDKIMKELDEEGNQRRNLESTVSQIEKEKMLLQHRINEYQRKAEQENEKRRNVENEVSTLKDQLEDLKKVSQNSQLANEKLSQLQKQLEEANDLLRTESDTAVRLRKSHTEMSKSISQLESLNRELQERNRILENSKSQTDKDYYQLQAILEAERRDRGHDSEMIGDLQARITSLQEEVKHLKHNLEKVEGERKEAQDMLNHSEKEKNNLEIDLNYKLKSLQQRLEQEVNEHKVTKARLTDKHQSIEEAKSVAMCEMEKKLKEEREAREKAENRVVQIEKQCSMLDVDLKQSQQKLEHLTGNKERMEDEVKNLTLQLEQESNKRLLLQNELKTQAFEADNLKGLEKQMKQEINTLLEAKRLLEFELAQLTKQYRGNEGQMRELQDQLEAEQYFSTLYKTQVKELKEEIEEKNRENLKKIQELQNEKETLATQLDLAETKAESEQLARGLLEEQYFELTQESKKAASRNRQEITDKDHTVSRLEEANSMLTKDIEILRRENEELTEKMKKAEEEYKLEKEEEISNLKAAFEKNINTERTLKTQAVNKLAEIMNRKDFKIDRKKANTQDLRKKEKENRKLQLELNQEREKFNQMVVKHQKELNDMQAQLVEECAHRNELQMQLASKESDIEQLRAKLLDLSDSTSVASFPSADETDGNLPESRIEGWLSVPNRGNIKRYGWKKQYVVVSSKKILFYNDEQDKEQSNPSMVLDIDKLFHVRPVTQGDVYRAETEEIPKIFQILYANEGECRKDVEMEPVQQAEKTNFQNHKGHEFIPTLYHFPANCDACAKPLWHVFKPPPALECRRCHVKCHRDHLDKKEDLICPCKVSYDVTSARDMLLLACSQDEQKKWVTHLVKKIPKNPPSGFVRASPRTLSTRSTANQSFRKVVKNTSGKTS

NC[C@@](O)(c1ccc(Cl)cc1)c1ccc(-c2cn[nH]c2)cc1 [AT-13148]
inhibition [1]: > 80% | inhibition [2]: > 80% | inhibition [3]: > 80% | inhibition [4]: > 80% | inhibition [5]: > 80% | inhibition [6]: > 80% | Kp at 24 h [7]: 13.6 | inhibition [8]: > 80% | half-life [9]: 2.8 h | IC50 [10]: < 10 nM | T/C [11]: 36% | inhibition [12]: 50%
